Laboratory results: patent US20170258817A1, “FOSFESTROL FOR USE IN CURATIVE OR PALLIATIVE TREATMENT OF PROSTATE CANCER” (CHAMAELEO PHARMA BVBA, priority 2012, published 2017)

Key:
[1] = test system: DU-145 hormone-independent prostate cancer cell line; assay: in vitro direct cytotoxicity, Cell titer blue viability assay; type: cell-based; conditions: Homo sapiens; DU-145, 72 hrs incubation
Description: (§1) Cells were maintained in vitro in RPMI 1640 containing 10% (v/v) heat inactivated fetal bovine serum (FBS) and 2 mM L-glutamine (growth media) at 37° C. in 5% CO2 and humidified conditions. Cells were harvested, washed, re-suspended into growth medium and counted. The cells were re-suspended into assay media (RPMI 1640+1% (v/v) heat inactivated FBS+ and 2 mM L-glutamine) at 0.5×10^5 cells/ml for DU-145 cells and 1×10^5 for LNCaP cells, and plated into 96-well assay plates (Corning, black-wall plates) and 50 μl/well aliquots.
(§2) Plates were incubated O/N at 37° C. in 5% humidified CO2 prior to addition of the compounds. […] Fosfestrol was dissolved in sterile water at stock concentration of 60 mM. Stocks of all compounds were then serially diluted. Final concentrations to which cells were exposed were: 300, 150, 75, 37.5, 18.75, 9.4, 4.7, 2.3, 1.2 and 0.6 μM. Positive control was Taxotere. Taxotere was diluted in 100% DSMO to give a stock concentration of 1 mM. Stock was serial diluted and final concentration to which cells were exposed was: 1000, 333.3, 111.1, 37.0, 12.3, 4.1, 1.4, 0.5, and 0.2 nM.
(§3) Plates were incubated for 72 hrs at 37° C. in 5% humidified CO-2 after addition of the compounds. Viability of the cells was assessed with the Cell titer blue® (Promega) assay. […] Fluorescence was measured with a Flex II station plate reader. […]

[2] = test system: LNCaP hormone-dependent prostate cancer cell line; assay: as above; type: cell-based; conditions: Homo sapiens, 72 hrs incubation
Description: as §1, §2, §3

prostate cancer = conditions: 5 mg of DES p.o. per day; cited from earlier work
[3] = buccal administration; cited from earlier work
prostate cancer cells = conditions: cited from earlier work
[4] = test system: DU-145 prostate cancer cells; conditions: through inhibition of microtubule formation; cited from earlier work

SMILES | IC50 [1] [nM] | IC50 [2] [nM] | increase of non-cancer related deaths, mostly cardiovascular (prostate cancer) [%] | DES plasma level, on average [3] [ng DES/ml] | induction of thromboembolic activator (Fibrinogen) [3] | DES concentrations that do not influence prostate cancer cell growth (prostate cancer cells) | minimal concentration of DES to induce some cytotoxic effects (prostate cancer cells) [µg/mL] | effect on DU-145 prostate cancer cells [4]
CC(=O)O[C@@]12CO[C@@H]1C[C@H](O)[C@@]1(C)C(=O)[C@H](O)C3=C(C)[C@@H](OC(=O)[C@H](O)[C@@H](NC(=O)OC(C)(C)C)c4ccccc4)C[C@@](O)([C@@H](OC(=O)c4ccccc4)[C@H]21)C3(C)C [Taxotere] | 4 | 2 |  |  |  |  |  | 
CC/C(=C(/CC)c1ccc(O)cc1)c1ccc(O)cc1 [DES, diethylstilbestrol] |  |  | 36 | 11 | without inducing a thromboembolic activator (Fibrinogen) | up to 100 ng/ml | 1 | cytotoxic effects
